Source: ChEMBL document CHEMBL5346906, “Discovery of novel tranylcypromine-based derivatives as LSD1 inhibitors for gastric cancer treatment” (Eur J Med Chem, 2023)
The source made the active and inactive calls. No cut-off for these calls is given here.

How the values were obtained:
MGC-803 [1] = assay: Induction of apoptosis in human MGC-803 cells assessed as morphological change of cells incubated at 8 to 24 micromol/L for 48 hrs measured by bright field microscopic analysis; format: functional, cell-based; conditions: dose 8-24 µmol/L
MGC-803 [2] = assay: Induction of apoptosis in human MGC-803 cells assessed as decrease in anti-apoptotic Bcl-2 expression at 8 to 24 micromol/L; format: functional, cell-based; conditions: dose 8-24 µmol/L
MGC-803 [3] = assay: Induction of cell differentiation in human MGC-803 cells assessed as decrease in nucleoplasmic ratio of cells incubated for 6 days measured by Giemsa staining method; format: functional, cell-based; conditions: dose 2-4 µmol/L, time 6.0 day
[4] = target: T1, Amine oxidase [flavin-containing] A (Homo sapiens, UniProt P21397); assay: Inhibition of MAO-A (unknown origin) measured by MAO-GloTM method
T1 sequence (P21397 whole entry): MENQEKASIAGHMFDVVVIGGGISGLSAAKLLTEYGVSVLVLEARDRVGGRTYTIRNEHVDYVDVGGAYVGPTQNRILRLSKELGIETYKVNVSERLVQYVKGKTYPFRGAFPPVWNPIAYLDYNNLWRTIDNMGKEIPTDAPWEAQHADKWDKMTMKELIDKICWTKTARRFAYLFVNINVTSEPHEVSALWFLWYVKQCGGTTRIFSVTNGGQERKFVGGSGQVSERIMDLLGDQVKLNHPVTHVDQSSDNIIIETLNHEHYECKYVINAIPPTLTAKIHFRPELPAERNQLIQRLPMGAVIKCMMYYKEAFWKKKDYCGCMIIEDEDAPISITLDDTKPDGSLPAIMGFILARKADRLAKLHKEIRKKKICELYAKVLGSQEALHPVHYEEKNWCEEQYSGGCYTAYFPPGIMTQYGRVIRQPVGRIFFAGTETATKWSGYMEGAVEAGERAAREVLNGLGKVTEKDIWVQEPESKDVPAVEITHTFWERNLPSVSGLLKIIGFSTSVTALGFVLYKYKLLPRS

[5] = target: T2, Amine oxidase [flavin-containing] B (Homo sapiens, UniProt P27338); assay: Inhibition of MAO-B (unknown origin) measured by MAO-GloTM method
T2 sequence (P27338 whole entry): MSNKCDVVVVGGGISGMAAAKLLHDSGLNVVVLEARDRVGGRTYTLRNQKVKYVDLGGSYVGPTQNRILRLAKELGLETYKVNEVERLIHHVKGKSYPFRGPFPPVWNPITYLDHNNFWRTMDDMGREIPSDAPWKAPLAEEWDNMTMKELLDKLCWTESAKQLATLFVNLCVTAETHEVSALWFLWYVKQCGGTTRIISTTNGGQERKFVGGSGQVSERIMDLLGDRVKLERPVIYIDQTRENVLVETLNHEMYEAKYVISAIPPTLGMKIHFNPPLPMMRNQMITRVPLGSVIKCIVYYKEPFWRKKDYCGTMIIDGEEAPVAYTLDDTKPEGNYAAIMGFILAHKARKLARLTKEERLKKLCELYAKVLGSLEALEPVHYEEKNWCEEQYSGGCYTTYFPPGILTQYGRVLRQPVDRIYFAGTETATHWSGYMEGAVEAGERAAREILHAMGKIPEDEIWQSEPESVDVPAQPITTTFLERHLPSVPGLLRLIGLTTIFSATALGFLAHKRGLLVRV

MGC-803 [6] = assay: Induction of apoptosis in human MGC-803 cells assessed as viable cells at 16 micromol/L for 48 hrs by annexinV-FITC/PI staining based flow cytometric analysis (reference value: 95.54%); format: functional; conditions: MGC-803, 48 h, dose 16 µmol/L, read-out: Activity
MGC-803 [7] = assay: Antiproliferative activity against human MGC-803 cells assessed as reduction in stemness of cells by measuring tumor ball diameter at 0 to 8 uM after 48 hrs using 3D-spheroid assay; format: functional, cell-based; conditions: dose 0-8 µM
MGC-803 [8] = assay: Inhibition of cell migration in human MGC-803 cells assessed as scratch width decrease treated at 2 to 6 micromol/L for 48 hrs measured by transwell assay based crystal violet staining analysis; format: functional; conditions: dose 2-6 µmol/L
[9] = target: T3, Lysine-specific histone demethylase 1A (Homo sapiens, UniProt O60341); assay: Inhibition of LSD1 in human MGC-803 cells assessed as increase in mono methylation of H3K4; format: cell-based; conditions: dose 0-24 µmol/L
[10] = target: T3, Lysine-specific histone demethylase 1A; assay: Binding affinity to LSD1 in human MGC-803 cells assessed as thermal stability measured at 100 uM preincubated for 30 mins and incubated at 42 to 60 degreeC for 3 mins followed by cooled for 180 secs cycle repeated 3 times by CETSA based Western blotting analysis; format: cell-based; conditions: time 48.0 min
MGC-803 [11] = assay: Antiproliferative activity against human MGC-803 cells assessed as reduction in stemness of cells by measuring tumor ball diameter at 0 to 8 uM after 48 hrs measured after 5 days using 3D-spheroid assay; format: functional, cell-based; conditions: dose 0-8 µM
MGC-803 [12] = assay: Induction of mitochondrial membrane potential depolarization in human MGC-803 assessed as late apoptotic cells measured at 8 micromol/L for 20 mins by JC-1 staining based flow cytometric analysis (reference value: 94.98%); format: functional; conditions: dose 8 µmol/L, at 8 µM
[13] = target: T3, Lysine-specific histone demethylase 1A; assay: Inhibition of recombinant LSD1 (unknown origin) preincubated for 10 mins in presence of H3K4Me2 measured after 30 mins by measuring fluorescence intensity by fluorescence based microplate reader
MGC-803 [14] = assay: Antiproliferative activity against human MGC-803 cells incubated for 48 hrs measured by MTT assay; format: functional, cell-based; conditions: MGC-803, 48 h
MGC-803 [15] = assay: Induction of mitochondrial membrane potential depolarization in human MGC-803 assessed as viable cells measured at 16 micromol/L for 20 mins by JC-1 staining based flow cytometric analysis (reference value: 0.40%); format: functional; conditions: MGC-803, 20 min, dose 16 µmol/L, read-out: Activity
MGC-803 [16] = assay: Induction of apoptosis in human MGC-803 cells assessed as necrotic cells at 24 micromol/L for 48 hrs by annexinV-FITC/PI staining based flow cytometric analysis (reference value: 0.22%); format: functional; conditions: dose 24 µmol/L, at 24 µM
MGC-803 [17] = assay: Induction of apoptosis in human MGC-803 cells assessed as early apoptotic cells at 24 micromol/L for 48 hrs by annexinV-FITC/PI staining based flow cytometric analysis (reference value: 2.92%); format: functional; conditions: dose 24 µmol/L, at 24 µM
MGC-803 [18] = assay: Induction of apoptosis in human MGC-803 cells assessed as necrotic cells at 8 micromol/L for 48 hrs by annexinV-FITC/PI staining based flow cytometric analysis (reference value: 0.22%); format: functional; conditions: dose 8 µmol/L, at 8 µM
MGC-803 [19] = assay: Induction of apoptosis in human MGC-803 cells assessed as decrease in capase9 expression at 8 to 24 micromol/L; format: functional, cell-based; conditions: dose 8-24 µmol/L
MGC-803 [20] = assay: Induction of mitochondrial membrane potential depolarization in human MGC-803 assessed as late apoptotic cells measured at 16 micromol/L for 20 mins by JC-1 staining based flow cytometric analysis (reference value: 94.98%); format: functional; conditions: dose 16 µmol/L, at 16 µM
MGC-803 [21] = assay: Induction of mitochondrial membrane potential depolarization in human MGC-803 assessed as early apoptotic cells measured at 16 micromol/L for 20 mins by JC-1 staining based flow cytometric analysis (reference value: 4.52%); format: functional; conditions: dose 16 µmol/L, at 16 µM
[22] = target: T3, Lysine-specific histone demethylase 1A; assay: Inhibition of LSD1 in human MGC-803 cells assessed as increase in methylation of H3K4 at 24 micromol/L; format: cell-based; conditions: dose 24.0 µmol/L
KYSE-450 = assay: Antiproliferative activity against human KYSE-450 cells incubated for 48 hrs measured by MTT assay; format: functional, cell-based; conditions: KYSE-450, 48 h

- IC50 [4]: 1.23 µM
- IC50 [5]: 3.82 µM
- inhibition [9]: Dose-Dependent Effect
- Activity [10]: Active
- IC50 [13]: 0.0253 µM
- IC50 (MGC-803 [14]): 14.3 µM
- inhibition [22]: Active
Compound: O=C(c1cccc(CN[C@@H]2C[C@H]2c2ccc(F)c(F)c2)c1)N1CCN(c2ccc(Cl)c(Cl)c2)CC1
- Activity (MGC-803 [1]): Active
- Activity (MGC-803 [2]): Active
- Activity (MGC-803 [3]): Dose-Dependent Effect
- viability at 16 µM (MGC-803 [6]): 57.5%
- Activity (MGC-803 [7]): Active
- inhibition (MGC-803 [8]): Active
- Activity (MGC-803 [11]): inactive
- Activity (MGC-803 [12]): 93.18%
- viability at 16 µM (MGC-803 [15]): 1.34%
- Activity (MGC-803 [16]): 0.38%
- Activity (MGC-803 [17]): 37.89%
- Activity (MGC-803 [18]): 0.32%
- Activity (MGC-803 [19]): Active
- Activity (MGC-803 [20]): 81%
- Activity (MGC-803 [21]): 17.64%
- IC50 (KYSE-450): 22.8 µM
